# Patent US11999727B2 (Tango Therapeutics, Inc., priority 2020, dated 2024)
# Tests used:
# [1] = system: HAP1 MTAP-deleted cell line; assay: Viability assay, MTAP-deleted cell line; format: cell-based; settings: Homo sapiens, read-out: HAP1 MTAP deleted viability
# From the text: Table 1 additionally indicates IC50 values in a viability assay for the MTAP-deleted cell line (column 10), indicating the effect of treatment with compound on cell survival.
# PRMT5 [2] = target: T1, PRMT5 (Homo sapiens, UniProt O14744); assay: PRMT5 biochemical IC50 assay with no cofactor; settings: PRMT5, no cofactor
# T1 construct: purchased Viva (custom protein)
# T1 sequence (O14744 whole entry): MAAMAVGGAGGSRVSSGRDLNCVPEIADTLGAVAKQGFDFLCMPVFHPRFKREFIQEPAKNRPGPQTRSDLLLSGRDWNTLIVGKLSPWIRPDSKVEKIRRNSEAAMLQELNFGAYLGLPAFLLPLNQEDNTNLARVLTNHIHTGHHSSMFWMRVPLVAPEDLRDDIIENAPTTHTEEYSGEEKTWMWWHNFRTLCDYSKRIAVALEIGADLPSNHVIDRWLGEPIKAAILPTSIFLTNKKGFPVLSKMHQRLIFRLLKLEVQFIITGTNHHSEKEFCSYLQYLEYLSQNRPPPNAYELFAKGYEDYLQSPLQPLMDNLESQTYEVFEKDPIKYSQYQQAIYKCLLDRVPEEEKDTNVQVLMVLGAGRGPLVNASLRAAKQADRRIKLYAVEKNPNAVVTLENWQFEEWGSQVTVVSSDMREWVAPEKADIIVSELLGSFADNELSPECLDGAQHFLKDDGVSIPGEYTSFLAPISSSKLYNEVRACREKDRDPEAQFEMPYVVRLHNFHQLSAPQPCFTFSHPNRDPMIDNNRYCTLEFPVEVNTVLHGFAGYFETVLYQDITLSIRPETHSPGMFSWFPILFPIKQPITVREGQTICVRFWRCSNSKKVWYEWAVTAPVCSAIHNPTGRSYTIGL
# T1 sequence (Q9BQA1 whole entry partner): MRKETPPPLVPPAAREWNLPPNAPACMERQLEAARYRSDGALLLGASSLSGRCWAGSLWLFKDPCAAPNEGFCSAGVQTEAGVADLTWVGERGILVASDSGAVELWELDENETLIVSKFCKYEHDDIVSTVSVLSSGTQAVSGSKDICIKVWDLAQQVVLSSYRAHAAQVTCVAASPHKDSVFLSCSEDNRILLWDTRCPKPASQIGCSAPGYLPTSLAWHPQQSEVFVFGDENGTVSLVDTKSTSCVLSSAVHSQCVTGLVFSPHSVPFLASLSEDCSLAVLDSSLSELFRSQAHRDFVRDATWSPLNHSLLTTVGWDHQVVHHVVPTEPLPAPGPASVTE
# From the text: Table 1 indicates IC50 values (μM) against PRMT5 for exemplary compounds in the presence of SAM as cofactor, with no cofactor, and with MTA as cofactor, respectively (columns 4-6). […] Ki values can be calculated from the IC50 values as described in the Examples section. As detailed in the Examples section, for the assay performed in the presence of SAM, IC50=Ki×1.5 (Ki=IC50/1.5).
# PRMT5 [3] = target: T1, PRMT5; assay: PRMT5 biochemical IC50 assay with MTA as cofactor; settings: PRMT5, MTA as cofactor; read-out: MTA IC50
# [4] = system: HAP1 MTAP-deleted cell line; assay: SDMA in-cell western assay, HAP1 MTAP-deleted; format: cell-based; settings: for IC50: Homo sapiens, HAP1, SDMA in-cell western, HAP1 MTAP-deleted; for MTAP intact/deleted ratio: IC50 ratio HAP1 MTAP-intact / HAP1 MTAP-deleted, SDMA in-cell western
# Procedure, shortened: (§1)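 Readout: in-cell western detection of SDMA. Cells: HAP1 expressing endogenous MTAP and an MTAP-null HAP1 counterpart. Output: IC50.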
# [5] = system: HAP1 MTAP-intact cell line; assay: SDMA in-cell western assay, HAP1 MTAP-intact; format: cell-based; settings: Homo sapiens, HAP1, SDMA in-cell western, HAP1 MTAP-intact; read-out: MTAP HAP1 intact IC50
# Procedure, shortened: as §1
# PRMT5 [6] = target: T1, PRMT5; assay: PRMT5 biochemical IC50 assay with SAM as cofactor; settings: PRMT5, SAM as cofactor; read-out: SAM IC50
# [7] = HAP1, viability assay, MTAP-deleted cell line
# [8] = read-out: HAP1 MTAP deleted IC50
# [9] = HAP1, viability IC50, MTAP-deleted cell line
# [10] = read-out: HAP 1 MTAP deleted IC50
# [11] = HAP1, viability assay, HAP1 MTAP-deleted
# [12] = read-out: No Cofactor/ rel IC50
Compound,"IC50 [1, 7]",IC50 (PRMT5 [2]; read-out: No Cofactor/rel IC50),IC50 (PRMT5 [3]),"IC50 [4, 8]",MTAP intact/deleted ratio [4],IC50 [5],IC50 (PRMT5 [6]),"IC50 [1, 9]","IC50 [4, 10]","IC50 [1, 11]","IC50 ([1]; HAP1, viability, HAP1 MTAP-deleted cell line)",IC50 (PRMT5 [2]; [12])
"C[C@H]1CC[C@H](c2ccc(C(F)(F)F)cc2)N(C(=O)C(=O)Nc2cncc(C(N)=O)c2)C1 (single isomer, unassigned) [Compound 511]",1000 to 10000 nM,50 to 500 nM,< 50 nM,100 to 1000 nM,A (an IC50 ratio greater than or equal to 10 fold),> 1000 nM,50 to 500 nM,,,,,
"Cc1cc(NC(=O)C(=O)N2C[C@H](C)C(F)(F)C[C@H]2c2ccc(F)c(F)c2)cnc1N (single isomer, unassigned) [Compound 684]",,> 500 nM,> 500 nM,,C (an IC50 ratio of less than 3 fold),> 1000 nM,> 500 nM,> 10000 nM,> 1000 nM,,,
Cc1cc(NC(=O)C(=O)N2C[C@@H](C)CC[C@H]2C23CC(O)(C2)C3)cnc1N (racemic) [Compound 774],,> 500 nM,50 to 500 nM,> 1000 nM,B (an IC50 ratio greater than or equal to 3 fold but lower than 10 fold),> 1000 nM,> 500 nM,,,> 10000 nM,,
"CCc1cc(NC(=O)C(=O)N2C[C@@H](C)CC[C@@H]2c2ccc3sc(C4CCN(CC(F)F)CC4)nc3c2)cnc1N [Compound 1304, N-(6-amino-5-ethylpyridin-3-yl)-2-((2R,5S)-2-(2-(1-(2,2-difluoroethyl)piperidin-4-yl)benzo[d]thiazol-5-yl)-5-methylpiperidin-1-yl)-2-oxoacetamide]",,,< 50 nM,,A (an IC50 ratio greater than or equal to 10 fold),100 to 1000 nM,< 50 nM,,< 100 nM,,< 1000 nM,< 50 nM
"Cc1nc2cc([C@H]3CC[C@H](C)CN3C(=O)C(=O)Nc3cnc(N)c(C)c3)ccc2s1 (single isomer, unassigned) [Compound 719]",,< 50 nM,< 50 nM,< 100 nM,A (an IC50 ratio greater than or equal to 10 fold),100 to 1000 nM,50 to 500 nM,,,< 1000 nM,,
"Cc1cc(NC(=O)C(=O)N2C[C@H](C)CC[C@H]2c2ccc(F)c(Cl)c2)cnc1N (single isomer, unassigned) [Compound 596]",,< 50 nM,< 50 nM,,A (an IC50 ratio greater than or equal to 10 fold),100 to 1000 nM,50 to 500 nM,< 1000 nM,< 100 nM,,,
"C[C@@H]1CC[C@@H](c2cccc(F)c2)N(C(=O)C(=O)Nc2cncc(C(N)=O)c2)C1 (racemic) [Compound 247, rac-5-{2-[(2R,5S)-2-(3-Fluorophenyl)-5-methylpiperidin-1-yl]-2-oxoacetamido}pyridine-3-carboxamide]",1000 to 10000 nM,50 to 500 nM,< 50 nM,< 100 nM,A (an IC50 ratio greater than or equal to 10 fold),> 1000 nM,50 to 500 nM,,,,,
"NC(=O)c1cncc(NC(=O)C(=O)N2CCCC[C@H]2c2ccccc2)c1 (single isomer, unassigned) [Compound 97]",> 10000 nM,,50 to 500 nM,,C (an IC50 ratio of less than 3 fold),> 1000 nM,> 500 nM,,> 1000 nM,,,> 500 nM
"C[C@H]1CC[C@H](c2cccc(C(F)(F)F)c2)N(C(=O)C(=O)Nc2cncc(C(N)=O)c2)C1 (single isomer, unassigned) [Compound 509]",1000 to 10000 nM,50 to 500 nM,< 50 nM,< 100 nM,A (an IC50 ratio greater than or equal to 10 fold),> 1000 nM,50 to 500 nM,,,,,
"Cc1cc(NC(=O)C(=O)N2CCCC[C@@H]2c2ccc3[nH]ncc3c2)cnc1N (single isomer, unassigned) [Compound 535]",,> 500 nM,> 500 nM,,B (an IC50 ratio greater than or equal to 3 fold but lower than 10 fold),> 1000 nM,> 500 nM,> 10000 nM,> 1000 nM,,,
